Laboratory results: patent publication US11318090B1, “In situ gelling composition as a pH-selective and mucoadhesive sustained release drug delivery system” (King Abdulaziz University, priority 2021, dated 2022)

Assay: pH-profile drug release in dialysis bag, consecutive simulated gastrointestinal media
Assay type: physicochemical
Experimental: Rv (Sigma-Aldrich, USA) stock solution of 15 μg/mL was prepared in distilled water. Using UV spectrophotometric analysis (Shimadzu-UV-Vis Spectrophotometers, Japan), the analysis was conducted at a wavelength of 306 nm in a 1 cm cell compared to a blank solution of distilled water. To construct a calibration curve, dilutions had been prepared (FIG. 1). The ? -max selection was based on the UV-scanning from 200-400 nm of pure Rv solution. The formulations' drug-content assays for drug encapsulation efficiency were accomplished by dissolving the formulation in ethanol and centrifuging it for 30 minutes at 1500 rpm. After that, an accurate volume of the supernatant transparent layer had been measured for UV-absorbance at 306 nm for Rv content. This ? -max was unique for Rv only (Zhang Lingtuo et al. 2019).
The formulations in Table 1 containing 500 mg of the Rv were each encountered in the dialysis bag (14000 Daltons cut off, Sigma-Aldrich, USA). The dry weights of the formulations were reconstituted with distilled water before enclosing them inside the dialysis bag. The release media volume was 300 mL. The drug-release experiment was designed to simulate the gastrointestinal-pH and transit time after oral ingestion. As a result, the dialysis membranes' surrounding media simulated gastric media (0.1N HCl-pH 1.2), proximal intestine simulated media (phosphate buffer-pH 6.5), the distal area of the small intestine (phosphate buffer-pH 6.8), and phosphate buffer media-pH 7.4 of descending colon simulated media, consecutively. The transit time for each simulated media was two hrs (Amidon et al. 2015; Maurer et al. 2015; Bani-Jaber and Abdullah 2020). The dialysis membranes were subjected to 37±0.5° C. in a water bath shaker of 75 rpm speed. Total release media replacement was made after each hour of dissolution to simulate body sink conditions. This experiment was conducted to optimize the formulation depending on SR behavior and drug encapsulation efficiency. The optimum formula was subjected to aging, gel swelling studies, nanoparticle, and formulation's physiochemical characterizations.

Substance: 3,5,4-trihydroxytrans-stilbene [Rv]
- Gastric % Release (0.1N HCl pH 1.2, 2 hrs, 37°C, 500 mg Rv, freshly prepared): 16.83%
- average total pH-profile release after 8 hrs (pH 1.2, 6.5, 6.8, 7.4, 2 hrs each): 50.89%
- Intestinal-Colonic % Release (pH 6.5, 6.8 and 7.4 media together (6 hrs), freshly prepared): 34.06%
- Proximal Intestine % Release (phosphate buffer pH 6.5, 2 hrs, freshly prepared): 11.49%
- Distal Intestine % Release (phosphate buffer pH 6.8, 2 hrs, freshly prepared): 12.74%
- Colon % Release (phosphate buffer pH 7.4, 2 hrs, freshly prepared): 9.83%
